Experimental data: article PMC3785448, “Effect of Selectively Introducing Arginine and D-Amino Acids on the Antimicrobial Activity and Salt Sensitivity in Analogs of Human Beta-Defensins” (PLoS ONE, 2013)
≈ marks a conversion by molar mass, not a printed value. Bridge positions count the residues as written; N and C are the ends. Square brackets hold non-standard residues; d marks the D form. Peptide text beside a SMILES is read from it.

Columns and labels:
E. coli (MG 1655) = experiment: Antibacterial activity, lethal concentration (colony count); format: cell-based, Escherichia coli; settings: lethal concentration = no viable colonies; 10^6 cfu/ml in 10 mM sodium phosphate buffer pH 7.4, 2 h at 37°C, plated 18 h; average of three independent experiments in duplicate, variation <5%
Protocol: (§1) Bacterial strains used were E. coli (MG 1655), S. aureus (ATCC 8530), and P. aeruginosa (NCTC 6751). The antibacterial activity of the peptides was examined in sterile 96 well plates at a ﬁnal volume of 100 µl as follows: Bacteria were grown in nutrient broth (Bacto Difco nutrient broth) to mid-log phase and diluted to 10^6 colony forming units (cfu)/ml in 10 mM sodium phosphate buffer (pH 7.4). Bacteria were incubated with different concentration of peptides for 2 h at 37°C and suitably diluted aliquots were spread on nutrient agar plates. After the plates were incubated at 37°C for 18 h, colonies formed were counted. Lethal concentration (LC) is the concentration of the peptides at which no viable colonies were formed. Cell survival is expressed as a percentage of the control. Percentage killing was calculated as: [(colonies from control cells- colonies from treated cells)/colonies from control cells x 100]. The LC determined was average of three independent experiments done in duplicate. In control experiments, cells were incubated with only buffer.

[1] = tested on: P. aeruginosa (NCTC 6751); experiment: as above; format: cell-based; settings: lethal concentration = no viable colonies; 10^6 cfu/ml in 10 mM sodium phosphate buffer pH 7.4, 2 h at 37°C, plated 18 h; average of three independent experiments in duplicate, variation <5%
Protocol: as §1

S. aureus (ATCC 8530) = experiment: as above; format: cell-based; settings: lethal concentration = no viable colonies; 10^6 cfu/ml in 10 mM sodium phosphate buffer pH 7.4, 2 h at 37°C, plated 18 h; average of three independent experiments in duplicate, variation <5%
Protocol: as §1

C. albicans = experiment: Candidacidal activity, minimum fungicidal concentration; format: cell-based; settings: minimum fungicidal concentration = no viable colonies; 10^6 cells/ml in 10 mM phosphate buffer pH 7.4, 2 h at 30°C, plated 24 h; average of three independent experiments in duplicate
Protocol: Minimum fungicidal concentrations (MFC) of the peptides were determined by growing C. albicans aerobically in yeast extract-peptone-dextrose (YEPD) medium at 30°C. After 20 h, 0.5 ml from this suspension was subcultured for 2 h in 20 ml of YEPD broth to obtain a mid-log-phase culture. Cells were harvested by centrifugation, washed with 10 mM phosphate buffer (PB), pH 7.4, and resuspended in the same buffer, and the concentration was adjusted to 10^6 cells/ml. Aliquots of diluted cells were incubated with peptides in 100 µl volume at 30°C for 2 h. Cell suspensions were diluted and spread on YEPD agar plates and the plates were incubated for 24 h at 30°C. Colonies were counted, and the concentrations of the peptides at which no viable colonies were formed were taken as the Minimum fungicidal concentration (MFC). Cell survival was expressed as a percentage of the control. Percentage killing was calculated as [(colonies from control cells- colonies from treated cells)/colonies from control cells x 100].
The average of results from three independent experiments done with duplicate samples was taken for the calculation of MFC. In control experiments, cells were incubated with only buffer.

Gram-negative bacteria = experiment: Effect of divalent cations on antibacterial activity at LC; format: cell-based; settings: peptide at its LC; for Antibacterial activity in the presence of 1 mM Ca2+, Gram-negative bacteria: 1 mM CaCl2 in buffer
Protocol: (§2) To determine the effect of salt on antibacterial activity, different concentrations of NaCl was included in the incubation buffer at their LC. Different concentrations of divalent cations Ca^2+ and Mg^2+ (as their chloride salts), were included in the buffer to determine their effect on activity at lethal concentration (LC) of the peptides. In control experiments, cells were incubated with only buffer. Data are presented as mean ± standard deviation computed for three independent replicates.
(§3) Figure 2 Effect of divalent cations on antibacterial activity. Mid-log phase bacteria (10^6 CFU/mL) were incubated with peptides at their LC in the absence or presence of the indicated concentrations of CaCl2 and MgCl2. The data are mean values of three independent experiments and the error bars represent standard deviation of the measurements. Standard deviation values ranged between 0.2-2.7.

P. aeruginosa = experiment: as above; format: cell-based; settings: peptide at its LC; for Loss in activity at 5 mM Mg2+ against P. aeruginosa: 5 mM MgCl2, as compared to HC-1(R)
Protocol: as §2, §3

bacteria = experiment: Antibacterial activity, comparison of peptides; format: cell-based; settings: from LC values
Protocol: as §1

S. aureus = experiment: Effect of divalent cations on antibacterial activity at LC; format: cell-based; settings: peptide at its LC, 1 mM CaCl2
Protocol: as §2, §3

SMILES	LC E. coli (E. coli (MG 1655))	LC P. aeruginosa [1]	LC S. aureus (S. aureus (ATCC 8530))	MFC C. albicans (C. albicans)	Antibacterial activity in the presence of 1 mM Ca2+, Gram-negative bacteria (Gram-negative bacteria)	Antibacterial activity in the presence of 5 mM Ca2+, Gram-negative bacteria (Gram-negative bacteria; 5 mM CaCl2 in buffer)	Loss in activity at 5 mM Ca2+ against P. aeruginosa (P. aeruginosa; 5 mM CaCl2, as compared to [D]HC-1(R))	Loss in activity at 5 mM Mg2+ against P. aeruginosa (P. aeruginosa)	Fold more active against bacteria as compared to HC-1(R) and [D]HC-1(R) (bacteria)	Loss in activity against S. aureus at 1 mM Ca2+ (S. aureus)
CC[C@@H](C)[C@H]1NC(=O)[C@H](CCC(N)=O)NC(=O)[C@H](CCC(=O)O)NC(=O)[C@H](CCC(=O)O)NC(=O)[C@H](CCCCN)NC(=O)[C@@H]2CCCN2C(=O)[C@H](CC(C)C)NC(=O)[C@@H](NC(=O)[C@@H](N)CO)CSSC[C@@H](C(=O)N[C@H](CCCNC(=N)N)C(=O)N[C@H](CCCNC(=N)N)C(=O)N[C@@H](CCCCN)C(=O)N[C@@H](CCCNC(=N)N)C(=O)O)NC(=O)[C@H](CCCCN)NC(=O)[C@@H](CCCNC(=N)N)NC(=O)CNC(=O)[C@@H](CCCNC(=N)N)NC(=O)[C@H]([C@@H](C)O)NC(=O)[C@H](CO)NC(=O)[C@H](CCCCN)NC(=O)CNC1=O [[D]HC-3(R)] (H-SCLPKEEQ[dI]GKST[dR]G[dR]KC[dR][dR]KR-OH; disulfide 2-18; N-terminus assumed)	2.5 µM	2.5 µM	2.5 µM	2.5 µM (≈ 6.54 µg/mL)	loss in activity is observed	further attenuated	more pronounced	more	2 fold	–
CC[C@H](C)[C@@H]1NC(=O)[C@H](CCCCN)NC(=O)[C@H]([C@@H](C)O)NC(=O)[C@H](Cc2ccccc2)NC(=O)[C@H]([C@@H](C)CC)NC(=O)[C@@H]2CCCN2C(=O)[C@@H](NC(=O)[C@H](C)N)CSSC[C@@H](C(=O)N[C@@H](CCCNC(=N)N)C(=O)O)NC(=O)[C@H](CCCCN)NC(=O)[C@H](C)NC(=O)[C@H](CCCNC(=N)N)NC(=O)CNC(=O)[C@H](CCCNC(=N)N)NC(=O)[C@H](Cc2ccc(O)cc2)NC(=O)[C@H]([C@@H](C)O)NC(=O)CNC(=O)[C@H](CCC(N)=O)NC1=O [HC-1(R)] (H-ACPIFTKIQGTYRGRAKCR-OH; disulfide 2-18)	–	–	–	2.5 µM (≈ 5.42 µg/mL)	–	–	–	–	–	–
CC[C@@H](C)[C@H]1NC(=O)[C@H](CCCCN)NC(=O)[C@H]([C@@H](C)O)NC(=O)[C@H](Cc2ccccc2)NC(=O)[C@@H]([C@H](C)CC)NC(=O)[C@@H]2CCCN2C(=O)[C@@H](NC(=O)[C@H](C)N)CSSC[C@@H](C(=O)N[C@@H](CCCNC(=N)N)C(=O)O)NC(=O)[C@H](CCCCN)NC(=O)[C@H](C)NC(=O)[C@@H](CCCNC(=N)N)NC(=O)CNC(=O)[C@@H](CCCNC(=N)N)NC(=O)[C@H](Cc2ccc(O)cc2)NC(=O)[C@H]([C@@H](C)O)NC(=O)CNC(=O)[C@H](CCC(N)=O)NC1=O [[D]HC-1(R)] (H-ACP[dI]FTK[dI]QGTY[dR]G[dR]AKCR-OH; disulfide 2-18; N-terminus assumed)	5 µM	5 µM	5 µM	5 µM (≈ 10.8 µg/mL)	is not attenuated	–	–	more	–	not
